Consider 1 compound from the NIST ThermoML archive (doi:10.1016/j.jct.2012.06.003).

Numbers after ± are expanded uncertainties.

The conditions of data set [1]: for Normal melting temperature: Crystal.
Data set [2] can be described thus: Molar enthalpy of transition or fusion. To be noted: DSC.

With `CCCCCC[n+]1cccc(C)c1.O=S(=O)([O-])C(F)(F)F` [1-hexyl-3-methylpyridinium trifluoromethanesulfonate], the Triple point temperature in data set [1] (Crystal 2, DTA) came to 310.3 ± 0.4 K. For the same compound, the values for the Normal melting temperature in data set [1] (DTA) and in data set [1] (Visual method) were 64.61 ± 0.39 °C and 63 ± 0.1 °C, respectively. Also, the “Molar enthalpy of transition or fusion” value in data set [2] (Crystal 2) was 0.467 ± 0.0526 kcal/mol; in data set [2] (Crystal), 10 ± 0.217 kcal/mol.
